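Interpolation was linear, between the two tested concentrations surrounding the appropriate level; five concentrations were tested over 48 hours in 96-well plates. TGI: total growth inhibition.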
What was measured:
Test in all cases: NCI tumour cell line growth inhibition, 48 h
[1] = system: NCI-H460 lung
[2] = system: SF-539 CNS
[3] = system: OVCAR-4 ovarian
[4] = system: CAKI-1 renal
[5] = system: HT29 colon
[6] = system: NCI-H522 lung
[7] = system: RXF 393 renal
[8] = system: HCT-116 colon
[9] = system: HCC-2998 colon
[10] = system: SK-MEL-5 melanoma
[11] = system: A498 renal
[12] = system: P388 leukemia
[13] = system: NCI-H226 lung
[14] = system: CCRF-CEM leukemia
[15] = system: DLD-1 colon
[16] = system: P388/ADR leukemia
[17] = system: UACC-257 melanoma
[18] = system: SK-MEL-2 melanoma
[19] = system: HCT-15 colon
[20] = system: HL-60(TB) leukemia
[21] = system: SF-295 CNS
[22] = system: NCI/ADR-RES ovarian
[23] = system: EKVX NSCLC
[24] = system: OVCAR-5 ovarian
[25] = system: SNB-19 CNS
[26] = system: K-562 leukemia
[27] = system: HOP-18 NSCLC
[28] = system: HOP-62 NSCLC
[29] = system: M19-MEL melanoma
[30] = system: SNB-75 CNS
[31] = system: LOX IMVI melanoma
[32] = system: COLO 205 colon
[33] = system: SW-620 colon
[34] = system: IGROV1 ovarian
[35] = system: OVCAR-3 ovarian
[36] = system: KM20L2 colon
[37] = system: U251 CNS
[38] = system: MALME-3M melanoma
[39] = system: A549 NSCLC
[40] = system: SK-MEL-28 melanoma
[41] = system: SF-268 CNS
[42] = system: UO-31 renal
[43] = system: HOP-92 NSCLC
[44] = system: UACC-62 melanoma
[45] = system: MOLT-4 leukemia
[46] = system: SN12C renal
[47] = system: MCF7 breast
[48] = system: DMS 114 small cell lung
[49] = system: NCI-H23 lung
[50] = system: KM12 colon
[51] = system: SNB-78 CNS
[52] = system: OVCAR-8 ovarian
[53] = system: SK-OV-3 ovarian
[54] = system: SN12K1 renal
[55] = system: RPMI-8226 leukemia
[56] = system: DMS 273 small cell lung
[57] = system: XF 498 CNS

Compound `Cc1c2cnccc2c(C)c2c1c1ccccc1n2CC1CO1` (configuration not stated) has a TGI [1] of 2.52 µM, a TGI [2] of 2.52 µM and a TGI [3] of 5.46 µM. The TGI [4] was 4.87 µM, the TGI [5] was 4.82 µM and the TGI [6] was 3.29 µM. The TGI [7] was 1.92 µM, the TGI [8] was 5.07 µM and the TGI [9] was 4.4 µM. It also gave a TGI [10] of 2.23 µM, a TGI [11] of 0.581 µM and a TGI [12] of 1.26 µM. It also gave a TGI [13] of 5.54 µM, a TGI [14] of 1.28 µM and a TGI [15] of 4.58 µM. The TGI [16] was 1.61 µM, the TGI [17] was 3.51 µM and the TGI [18] was 3.44 µM. For the same compound, the TGI [19] was 4.56 µM, the TGI [20] was 0.597 µM and the TGI [21] was 3.2 µM. The TGI [22] was 3.57 µM, the TGI [23] was 2.08 µM and the TGI [24] was 5.54 µM. The TGI [25] was 5.59 µM, the TGI [26] was 3.24 µM and the TGI [27] was 6.56 µM. The TGI [28] was 3.34 µM, the TGI [29] was 2.94 µM and the TGI [30] was 0.861 µM. For the same compound, the TGI [31] was 2.74 µM, the TGI [32] was 2.87 µM and the TGI [33] was 2.8 µM. For the same compound, the TGI [34] was 5.99 µM, the TGI [35] was 3.76 µM and the TGI [36] was 4.62 µM. It also gave a TGI [37] of 9.1 µM, a TGI [38] of 3.44 µM and a TGI [39] of 4.85 µM. For the same compound, the TGI [40] was 4.03 µM, the TGI [41] was 2.09 µM and the TGI [42] was 3.02 µM. It also gave a TGI [43] of 4.31 µM, a TGI [44] of 8.19 µM and a TGI [45] of 0.328 µM. The TGI [46] was 1.31 µM, the TGI [47] was 2.91 µM and the TGI [48] was 2.43 µM. For the same compound, the TGI [49] was 8.4 µM, the TGI [50] was 10.9 µM and the TGI [51] was 5.14 µM. For the same compound, the TGI [52] was 2.8 µM, the TGI [53] was 6.93 µM and the TGI [54] was 2.2 µM. The TGI [55] was 7.6 µM and the TGI [56] was 2.43 µM.

`COc1cccc2c1C(=O)c1c(O)c3c(c(O)c1C2=O)CC(O)(C(=O)CO)CC3OC1CC(N)C(I)C(C)O1` (configuration not stated) showed a TGI [1] of 12.6 µM, a TGI [2] of 11.8 µM and a TGI [3] of 26.9 µM. The TGI [4] was > 100 µM, the TGI [5] was > 100 µM and the TGI [6] was > 100 µM. For the same compound, the TGI [7] was 25.2 µM, the TGI [8] was 6.12 µM and the TGI [9] was 27.1 µM. For the same compound, the TGI [10] was 14.5 µM, the TGI [11] was 21.4 µM and the TGI [57] was 22.2 µM. For the same compound, the TGI [13] was 2.95 µM, the TGI [14] was > 100 µM and the TGI [15] was 13.7 µM. The TGI [16] was > 20.1 µM, the TGI [17] was > 52.3 µM and the TGI [18] was 30.4 µM. The TGI [19] was 14.6 µM, the TGI [20] was > 100 µM and the TGI [21] was 23.3 µM. The TGI [22] was > 31.6 µM, the TGI [23] was > 55.5 µM and the TGI [24] was > 54.6 µM. The TGI [25] was > 100 µM, the TGI [26] was > 100 µM and the TGI [27] was 65.7 µM. For the same compound, the TGI [28] was 13.9 µM, the TGI [29] was 30.7 µM and the TGI [30] was > 100 µM. The TGI [31] was 9.15 µM, the TGI [32] was > 100 µM and the TGI [33] was > 100 µM. The TGI [34] was 18.4 µM, the TGI [35] was > 57.6 µM and the TGI [36] was > 54.2 µM. For the same compound, the TGI [37] was 19.3 µM, the TGI [38] was 25.1 µM and the TGI [39] was > 55.1 µM. The TGI [40] was > 100 µM, the TGI [41] was > 100 µM and the TGI [42] was 17.5 µM. The TGI [43] was > 63 µM, the TGI [44] was 7.43 µM and the TGI [45] was > 100 µM. The TGI [46] was > 63.8 µM, the TGI [47] was 29.4 µM and the TGI [48] was > 30.2 µM. The TGI [49] was 15.1 µM, the TGI [50] was > 100 µM and the TGI [51] was > 100 µM. The TGI [52] was 34.1 µM, the TGI [53] was 18.6 µM and the TGI [54] was > 37.2 µM. For the same compound, the TGI [55] was > 100 µM and the TGI [56] was 7.03 µM.

Source: PubChem BioAssay (NCI)
